Assay results taken from patent US10745416B2, “Macrocyclic compounds for treating disease” (Turning Point Therapeutics, Inc., priority 2017, dated 2020).

What was measured:
Assay in all cases: Cell proliferation assay (CellTiter-Glo, 72 hours)
BaF3 EML4-ALK = target: T1, BaF3 EML4-ALK (Homo sapiens, UniProt Q9UM73); assay type: cell-based; details: anti-cell proliferation
T1 construct: The EML4-ALK gene (variant 1) was synthesized at GenScript and cloned into pCDH-CMV-MCS-EF1-Puro plasmid (System Biosciences, Inc); fused on or other part: Q9HC35 (Echinoderm microtubule-associated protein-like 4)
T1 sequence (Q9UM73 whole entry, change not shown, the tested form may be a part): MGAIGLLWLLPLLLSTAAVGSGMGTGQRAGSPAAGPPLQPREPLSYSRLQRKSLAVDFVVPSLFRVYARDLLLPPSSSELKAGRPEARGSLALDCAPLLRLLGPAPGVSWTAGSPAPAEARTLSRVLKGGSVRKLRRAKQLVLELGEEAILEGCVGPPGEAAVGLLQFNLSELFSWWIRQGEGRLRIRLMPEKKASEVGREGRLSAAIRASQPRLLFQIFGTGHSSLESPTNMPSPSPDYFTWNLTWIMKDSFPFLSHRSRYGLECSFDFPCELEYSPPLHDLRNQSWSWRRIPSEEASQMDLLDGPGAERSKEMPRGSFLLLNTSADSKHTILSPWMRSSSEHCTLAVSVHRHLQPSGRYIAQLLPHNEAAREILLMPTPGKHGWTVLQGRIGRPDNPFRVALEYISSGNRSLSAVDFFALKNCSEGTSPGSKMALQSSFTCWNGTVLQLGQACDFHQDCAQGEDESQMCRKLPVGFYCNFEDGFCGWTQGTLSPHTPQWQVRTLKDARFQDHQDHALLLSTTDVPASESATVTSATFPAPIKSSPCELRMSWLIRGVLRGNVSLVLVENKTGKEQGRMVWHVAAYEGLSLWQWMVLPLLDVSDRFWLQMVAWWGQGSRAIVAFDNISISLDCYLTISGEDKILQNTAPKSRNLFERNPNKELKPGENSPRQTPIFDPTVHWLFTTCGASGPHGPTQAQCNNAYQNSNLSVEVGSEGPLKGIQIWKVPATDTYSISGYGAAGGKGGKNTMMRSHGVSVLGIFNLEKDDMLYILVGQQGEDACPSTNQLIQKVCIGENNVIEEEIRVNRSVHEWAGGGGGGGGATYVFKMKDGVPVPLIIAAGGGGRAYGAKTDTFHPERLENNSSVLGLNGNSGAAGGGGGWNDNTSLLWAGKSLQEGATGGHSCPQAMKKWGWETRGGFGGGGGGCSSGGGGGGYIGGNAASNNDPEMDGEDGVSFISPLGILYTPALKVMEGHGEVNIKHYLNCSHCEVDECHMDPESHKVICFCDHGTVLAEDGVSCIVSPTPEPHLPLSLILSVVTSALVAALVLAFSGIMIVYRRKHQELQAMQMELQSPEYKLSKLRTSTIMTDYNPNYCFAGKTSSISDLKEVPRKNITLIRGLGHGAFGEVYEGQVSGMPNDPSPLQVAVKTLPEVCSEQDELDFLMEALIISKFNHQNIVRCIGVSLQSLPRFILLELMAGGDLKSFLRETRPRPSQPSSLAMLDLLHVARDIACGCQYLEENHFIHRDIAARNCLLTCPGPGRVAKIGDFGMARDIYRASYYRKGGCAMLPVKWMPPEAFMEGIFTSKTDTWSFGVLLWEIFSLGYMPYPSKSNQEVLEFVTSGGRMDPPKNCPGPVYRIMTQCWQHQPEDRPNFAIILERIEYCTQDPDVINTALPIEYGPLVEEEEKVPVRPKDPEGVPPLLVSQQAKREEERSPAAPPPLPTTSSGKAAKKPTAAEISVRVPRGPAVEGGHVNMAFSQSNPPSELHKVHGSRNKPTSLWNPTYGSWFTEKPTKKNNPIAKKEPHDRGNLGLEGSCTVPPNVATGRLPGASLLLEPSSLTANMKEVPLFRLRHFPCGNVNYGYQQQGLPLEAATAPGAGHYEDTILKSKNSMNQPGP
How it was run: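 Ba/F3 cells were stably transduced with wild-type EML4-ALK variant 1 and selected for IL-3-independent growth. Cells were seeded for 24 h, then exposed to compounds for 72 h at 37 °C, 5% CO2. Viability was read as ATP luminescence and IC50 values were fitted.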

KG-1 = assay type: cell-based, human; details: Homo sapiens, KG-1, anti-cell proliferation
How it was run: (§1)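 Cells used were KG-1 (AML), TT medullary thyroid carcinoma ([…]) and KM12 colon (TPM3-TRKA). Viability was read by CellTiter-Glo ATP luminescence, and IC50 derived by curve fitting.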

KM12 cell (TPM3-TRKA) = assay type: cell-based, human; details: Homo sapiens, KM12, anti-cell proliferation
How it was run: as §1

TT cell (RET C634W) = assay type: cell-based; details: Homo sapiens, anti-cell proliferation
Method: Human medulla thyroid carcinoma cell line TT (containing RET […] mutation) and acute myelogenous cell line KG-1 were purchased from ATCC. Human colon cancer cell line KMI2 (containing TPM3-TRKA) was obtained from NCI.
Two thousand cells per well were seeded in 384 well white plate for 24 hrs, and then treated with compounds for 72 hours (37° C., 5% CO2). Cell proliferation was measured using CellTiter-Glo luciferase-based ATP detection assay (Promega) following the manufactures's protocol. IC50 determinations were performed using GraphPad Prism software (GraphPad, Inc., San Diego, Calif.).

BaF3 KIF5B-RET = target: T2, BaF3 KIF5B-RET (Homo sapiens, UniProt P07949); assay type: cell-based; details: anti-cell proliferation, read-out: BaF3 KIF5B-RET IC50
T2 construct: fused on or other part: P33176 (Kinesin-1 heavy chain)
T2 sequence (P07949 whole entry, change not shown, the tested form may be a part): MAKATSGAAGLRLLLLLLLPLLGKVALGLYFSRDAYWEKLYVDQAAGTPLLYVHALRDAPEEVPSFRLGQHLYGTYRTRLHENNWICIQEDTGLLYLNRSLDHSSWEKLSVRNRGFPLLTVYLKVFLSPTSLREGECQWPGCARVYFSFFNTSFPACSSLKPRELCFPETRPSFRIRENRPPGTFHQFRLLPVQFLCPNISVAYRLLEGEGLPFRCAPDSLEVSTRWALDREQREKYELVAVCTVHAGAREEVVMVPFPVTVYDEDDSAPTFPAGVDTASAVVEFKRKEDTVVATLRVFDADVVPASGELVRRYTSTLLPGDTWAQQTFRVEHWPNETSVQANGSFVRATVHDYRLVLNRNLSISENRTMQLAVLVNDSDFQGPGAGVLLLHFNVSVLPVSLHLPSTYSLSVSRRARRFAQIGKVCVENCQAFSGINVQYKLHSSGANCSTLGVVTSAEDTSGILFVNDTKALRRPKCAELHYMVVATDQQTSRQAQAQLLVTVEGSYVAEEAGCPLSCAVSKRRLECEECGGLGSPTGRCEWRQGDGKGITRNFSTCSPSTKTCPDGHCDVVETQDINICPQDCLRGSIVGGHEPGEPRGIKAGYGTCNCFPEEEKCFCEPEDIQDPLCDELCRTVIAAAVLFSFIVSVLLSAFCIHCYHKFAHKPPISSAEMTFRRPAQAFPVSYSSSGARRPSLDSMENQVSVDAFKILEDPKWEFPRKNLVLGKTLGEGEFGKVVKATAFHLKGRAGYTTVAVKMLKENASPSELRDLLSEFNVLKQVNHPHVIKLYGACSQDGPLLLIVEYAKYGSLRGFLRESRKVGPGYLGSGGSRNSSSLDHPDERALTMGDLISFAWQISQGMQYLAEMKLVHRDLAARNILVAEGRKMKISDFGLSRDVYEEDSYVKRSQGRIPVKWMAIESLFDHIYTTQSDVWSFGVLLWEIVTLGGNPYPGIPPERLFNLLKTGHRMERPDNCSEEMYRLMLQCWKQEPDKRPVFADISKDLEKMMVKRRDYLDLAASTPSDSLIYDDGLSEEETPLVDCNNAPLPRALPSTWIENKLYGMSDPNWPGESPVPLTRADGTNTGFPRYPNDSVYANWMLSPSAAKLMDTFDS
How it was run: (§2)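 Ba/F3 cells were lentivirally transduced with wild-type or mutant KIF5B-RET, puromycin-selected and grown without IL-3. CellTiter-Glo ATP luminescence read viability, and IC50 values came from curve fitting.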

BaF3 KIF5B-RET_V804M = target: T3, BaF3 KIF5B-RET_V804M (Homo sapiens, UniProt P07949, V804M, cells depend on it); assay type: cell-based; details: anti-cell proliferation, read-out: BaF3 KIF5B-RET_V804M IC50
T3 construct: fused on or other part: P33176 (Kinesin-1 heavy chain)
T3 sequence (P07949 whole entry V804M, the tested form may be a part): as the sequence (P07949 whole entry, change not shown, the tested form may be a part) above, with V804M counted along it
How it was run: as §2

BaF3 KIF5B-RET_G810R = target: T4, BaF3 KIF5B-RET_G810R (Homo sapiens, UniProt P07949, G810R, cells depend on it); assay type: cell-based; details: anti-cell proliferation, read-out: BaF3 KIF5B-RET_G810R IC50
T4 construct: fused on or other part: P33176 (Kinesin-1 heavy chain)
T4 sequence (P07949 whole entry G810R, the tested form may be a part): as the sequence (P07949 whole entry, change not shown, the tested form may be a part) above, with G810R counted along it

Row | SMILES | GI50 (BaF3 EML4-ALK) [nM] | GI50 (BaF3 KIF5B-RET) [nM] | GI50 (BaF3 KIF5B-RET_V804M) [nM] | GI50 (BaF3 KIF5B-RET_G810R) [nM] | IC50 (KG-1) [nM] | IC50 (KM12 cell (TPM3-TRKA)) [nM] | IC50 (TT cell (RET C634W)) [nM]
1 | C[C@H]1CNC(=O)c2cnn3cc4c(nc23)N(Cc2cc(F)ccc2O1)[C@@H]1COC[C@@H]1O4 [Compound 4, (3aR,11S,20aS)-7-fluoro-11-methyl-1,3,3a,12,13,20a-hexahydro-5H-17-19-(metheno)furo[3′,4′:5,6][1,4] oxazino[3,4-i]pyrazolo[4,3-f][1,4,8,10]benzoxatriacyclotridecin-14(11H)-one] | 3290 | 184 | 5000 |  | 5000 | 22 | 462
2 | C[C@@H]1COc2ncc(F)cc2CN2c3nc4c(cnn4cc3O[C@H]3CCC[C@H]32)C(=O)N1 [Compound 6, (3aR,12R,20aS)-7-fluoro-12-methyl-2,3,3a,12,13,20a-hexahydro-1H,5H-17-19-(metheno)cyclopenta[5,6][1,4] oxazino[3,4-i]pyrazolo[4,3-f]pyrido[3,2-l][1,4,8,10]oxatriazacyclotridecin-14(11H)-one] | 146 | 0.2 | 573 | 3 | 1 | 0.2 | 
3 | O=C1NC2(CC2)COc2ncc(F)cc2CN2c3nc4c1cnn4cc3O[C@H]1CCC[C@H]12 [Compound 18, (3a′R,20a′S)-7′-fluoro-1′H,2′H,3′H,3a′H, 5′H,11′H,13′H,14′H,20a′H-spiro[cyclopropane-1,12′-[10,20]dioxa[4,9,13,16,17,18][hexaaza [17,19](metheno)cyclopenta[5,6][1,4]oxazino[3,4-i]pyrazolo[4,3-f]pyrido [3,2-l][1,4,8,10]oxatriazacyclotridecin]-14′-one] | 77.2 | 7.1 | 1530 | 24.4 | 16.9 | 11.3 | 

Now from value to molecule, other results behind:

Row | GI50 (BaF3 EML4-ALK) [nM] | GI50 (BaF3 KIF5B-RET) [nM] | GI50 (BaF3 KIF5B-RET_V804M) [nM] | GI50 (BaF3 KIF5B-RET_G810R) [nM] | SMILES | IC50 (KG-1) [nM] | IC50 (KM12 cell (TPM3-TRKA)) [nM] | IC50 (TT cell (RET C634W)) [nM]
4 | 1500 | < 0.2 | 1700 |  | C[C@H]1CNC(=O)c2cnn3cc4c(nc23)N(Cc2cc(F)cc(F)c2O1)[C@@H]1CCC[C@@H]1O4 [Compound 3, (3aR,11S,20aS)-7,9-difluoro-11-methyl-2,3,3a,12,13,20a-hexahydro-1H,5H-17-19-(metheno)cyclopenta[5,6][1,4] oxazino[3,4-i]pyrazolo[4,3-f][1,4,8,10]benzoxatriacyclotridecin-14(11H)-one] | 505 | 4.2 | 7.9
5 | 82.1 | < 0.2 | 349 | 0.3 | O=C1NC[C@H](F)COc2ncc(F)cc2CN2c3nc4c1cnn4cc3O[C@H]1CCC[C@H]12 [Compound 38, (3aR,12S,21aS)-7,12-difluoro-2,3,3a,11,12,13,21a-octahydro-1H,5H, 15H-18,20-(metheno)cyclopenta[5,6][1,4] oxazino[4,3-e]pyrazolo[3,4-h]pyrido[2,3-b][1,5,7,11]oxatriazacyclotetradecin-15-one] | < 0.2 | < 0.2 | 
6 | > 10000 | 397 | 5000 | 1640 | O=C1NC[C@@H](CO)Oc2ncc(F)cc2CN2c3nc4c1cnn4cc3O[C@H]1CCC[C@H]12 [Compound 49, (3aR,11S,20aS)-7-fluoro-11-(hydroxymethyl)-2,3,3a,12,13,20a-hexahydro-1H,5H-17,19-(metheno)cyclopenta[5,6][1,4]oxazino[3,4-i]pyrazolo[4,3-f]pyrido[3,2-l][1,4,8,10]oxatriazacyclotridecin-14(11H)-one] | 5240 | 1460 | 
7 | > 10000 | 1450 | > 10000 |  | C[C@H]1CNC(=O)c2cnn3cc4c(nc23)N(Cc2cc(F)ccc2O1)[C@@H]1CCC[C@H]1O4 [Compound 2] | 5000 | 255 | 1780
